The record followed here is patent US9604973B2, “Anti-cancer polyketide compounds” (priority 2012, dated 2017).

Type in all cases: cell-based, human
The subject of experiment [1] is normal T lymphocytes from healthy donor. Kind of experiment: Flow cytometry, % specific induced apoptosis in normal T lymphocytes. The note with it: normal T cells from healthy donors, 100 nM, 48 hours. How it is done: FIG. 21: FD-895 and PLAD induce apoptosis in CLL cells not ONLY independently of Tp53 but also independently of SF3B1 mutational status: Primary leukemia B cells from CLL patient with SF3B1 wild, SF3B1 mutation, 17p DEL and normal B and T lymphocytes from healthy donor were incubated with FD-895 and PLAD with 100 nM for 48 hours. After incubation, the samples were harvested and % SIA was measured by flow cytometry as described above. […] Each dots represents number of CLL patient sample and normal B or T cells.
(§1) Apoptotic and viable cells were discriminated via flow cytometry of cells stained with 3,3′ dihexyloxacarbocyanine iodide (DiOC6) (Molecular Probes, Eugene, Oreg., USA) and propidium iodine (Sigma, St Louis, Mo., USA), as described.^3 Using this method viable cells exclude PI and stain brightly positive for DiOC6.
In general terms: A flow cytometer gives signals particle by particle.

Experiment [2] relates to JURKAT. Kind of experiment: Flow cytometry cell viability/% SIA in leukemia cell line. To be noted: 0-10,000 nM, 48 hours. How it is done:
(§2) FIG. 22: Activity of FD-895, PLAD and F-Ara-A in different human leukemia cell lines: Different leukemia cell lines including MEC1, RAJI and JURKAT were incubated with FD-895, PLAD and F-Ara-A (0, 10, 100, 1000, 10,000 nM) for 48 hours. The samples were harvested and cell viability was measured by flow cytometry using propidium iodine (PI) exclusion and mitochondrial membrane potential changes using DiOC6. This experiments was performed 2 times independently.
(§3) The leukemia cell lines, MEC1, RAJI and JURKAT were maintained in CLL B cells were maintained in RPMI 1640 medium supplemented with 10% FBS, 2 mM L-glutamine, and 100 U/mL of penicillin and 100 μg/mL of streptomycin at 37° C. in an atmosphere of 5% CO2.
as §1
(§4) We further examined the activity of FD-895, PLAD and F-Ara-A in different leukemia cell lines like MEC1 (B chronic lymphocytic leukemia cell line), RAJI (B lymphocyte cell line), JURKAT (T lymphocyte cell line) as to know whether these compounds induce apoptosis or not. We incubated cells with FD-895, PLAD and F-Ara-A with 0, 10, 100, 1000 or 10,000 nM for 48 hours and measured the % SIA by using flow cytometry.

The subject of experiment [3] is MEC1. Described as above. The note with it: MEC1, 0-10,000 nM, 48 hours. The method, then: as §2, §3, §1, §4
Experiment [4] has as its system RAJI. Described as above. The note with it: 0-10,000 nM, 48 hours. The method, then:
as §2, §3, §1, §4

Experiment [5] has as its system DNAJB1. Kind of experiment: RT-PCR of spliced and unspliced mRNA (intron retention) in CLL cells. To be noted: 4 hours, FD-895, PLAD 10, 100 nM, bendamustine 33, 100 μM, F-Ara-A 3, 10, 33 μM. The method, then:
FIG. 23: FD-895 and PLAD induced inhibition of splicing in CLL: RT-PCR for analysis of spliced and unspliced mRNAs. CLL cells treated with FD-895, PLAD (10, 100 nM), chemotherapeutic agent like bendamustine (33, 100 μM) and F-Ara-A (3, 10, 33 μM) for 4 hours. RT-PCR for DNAJB1 was performed with primers spanning two exons; products were analyzed on ethidium bromide-stained agarose gels (2%) to visualize the correct size of the unspliced mRNAs. […] The exon structure of DNAJB1 gene is indicated. G, human genomic DNA was used as a control; U, unspliced mRNA; S, spliced mRNA.
CLL cells were treated with 10 and 100 nM of FD-895 and PLAD, 33 and 100 μM of bendamustine and 3, 10, and 33 μM of F-Ara-A for 4 h. Normal B and CLL cells were treated with 100 nM of FD-895 and PLAD and 10 μM of F-Ara-A for 15 minutes, 30 minutes, 1, 2 and 4 h. Total RNA was extracted using mirVana™ miRNA isolation kit (Ambion Life Technology, USA). After DNase treatment, 200 ng total RNA was reverse-transcribed using a SuperScript™ III first-strand synthesis system (Invitrogen). PCR was performed on 10 ng of the obtained cDNA (or human genomic DNA as a control) in 25 μl of reaction mixture containing Plantinum® PCR SuperMix High-fidelity (Invitrogen Life Technology, USA), and 0.1 μM of each primer of the appropriate pair.
PCR conditions were 94° C. for 3 min; 35 cycles of 94° C. for 30 s, 60° C. for 30 s, and 72° C. for 1 min; followed by 72° C. for 5 min. PCR products were separated on a 2% agarose gel and stained with ethidium bromide.

For experiment [6], the system named is DNAJB1. Kind of experiment: Quantitative RT-PCR of unspliced mRNA in CLL cells. To be noted: for unspliced mRNA of DNAJB1 over time: CLL cells, FD-895, PLAD 100 nM, F-Ara-A 10 μM, 15 min, 1 and 4 hours; for unspliced mRNA of DNAJB1: CLL, 10 nM, 4 hours. The method, then: FIG. 24: Time-dependent increase of unspliced mRNA by FD-895 and PLAD in CLL: CLL cells were treated with 100 nM of FD-895 and PLAD and 10 μM of F-Ara-A for 15 min, 1 and 4 hours. Quantitative RT-PCR using primers specific for each intron quantified unspliced mRNA for DNAJB1. GAPDH was used for normalization. […] Error bars indicate S.D.
(§5) Quantitative RT-PCR using primers specific for each intron quantified unspliced mRNA for DNAJB1 (FIG. 25A) and RIOK3 (FIG. 25B). GAPDH was used for normalization. […] Error bars indicate S.D.
(§6) CLL cells were treated with 100 nM of FD-895 and PLAD and 10 μM of F-Ara-A for 15 minutes, 1 and 4 h. Normal B and CLL cells were treated with 10, 100, and 1000 nM of FD-895 and PLAD and 10 μM of F-Ara-A for 4 h.
(§7) Extraction of total RNA and cDNA synthesis were performed as described earlier. Unspliced mRNA was quantified using a 7900HT fast Real Time PCR System (Applied Biosystems). The amounts of unspliced mRNA of DNAJB1, and RIOK3 were determined by SYBR green (Power SYBR Green PCR Master Mix, Applied Biosystems) real-time quantitative RT-PCR using specific primers designed for the intron of each gene (see additional information section at the end).
(§8) PCR using 0.2 μM of each primer was performed on 20 ng of the obtained cDNA. PCR conditions were 50° C. for 2 min; 95° C. for 10 min; 35 cycles of 94° C. for 20 s, 55° C. for 20 s, followed by 72° C. for 30 s. The mRNA levels were calculated using 2^−ΔΔCT method.^4 GAPDH was used as a control for normalization.

Experiment [7] relates to RIOK3. Kind of experiment: Quantitative RT-PCR of unspliced mRNA in CLL cells. To be noted: 10 nM, 4 hours. The method, then: as §5, §6, §7, §8
For experiment [8], the system named is DNAJB1. Kind of experiment: Quantitative RT-PCR of unspliced mRNA in normal B cells. The note with it: 4 hours. The method, then: as §5
Normal B cells were purified from buffy coats of healthy volunteers, obtained from San Diego blood bank. Positive isolation with Dynabeads® CD19 pan B and DETACHaBEAD CD19 (Invitrogen Life Technologies, USA) were used to achieve more than 95% purity by flow cytometry analysis.
as §6, §7, §8

Entries after “also recorded” stand apart in the source; their conditions may differ.

With `CCC(OC)C(C)C1OC1C(O)C(C)/C=C/C=C(\C)C1OC(=O)CC(O)CCC(C)(O)C(OC(C)=O)/C=C/C1C` (stereo not drawn) [FD-895], the “apoptosis (% SIA)” value in experiment [1] is listed as “did not induce significant cell death; also recorded: did not show significant apoptosis”. Moreover, the “cell death (% SIA)” value in experiment [2] is “high significant cell death”; in experiment [3], “did not show significant apoptosis”; in experiment [4], “high significant cell death”. Moreover, the “intron retention/splicing inhibition of DNAJB1” value in experiment [5] was “showed intron retention at low concentration”. Further, the “unspliced mRNA of DNAJB1 over time” value in experiment [6] is reported as “gradual increase in unspliced mRNA”. Also, the “unspliced mRNA of DNAJB1” value in experiment [6] was “clear increase in unspliced mRNA”; in experiment [8], “did not show significant increase in unspliced mRNA”. For the same compound, the “unspliced mRNA of RIOK3” value in experiment [7] is “clear increase in unspliced mRNA”.
Consider Pladienolide B, for which the “apoptosis (% SIA)” value in experiment [1] is recorded as “did not induce significant cell death; also recorded: did not show significant apoptosis”. Further, the entries for the “cell death (% SIA)” value in experiment [2], in experiment [3] and in experiment [4] were “high significant cell death”, “did not show significant apoptosis” and “high significant cell death”, respectively. For the same compound, in experiment [5], the “intron retention/splicing inhibition of DNAJB1” value is “showed intron retention at low concentration”. In experiment [6], the “unspliced mRNA of DNAJB1 over time” value is “gradual increase in unspliced mRNA”. Also, the “unspliced mRNA of DNAJB1” value is on record as “clear increase in unspliced mRNA” in experiment [6] and “did not show significant increase in unspliced mRNA” in experiment [8]. The “unspliced mRNA of RIOK3” value in experiment [7] was “clear increase in unspliced mRNA”.
